Measured values from the NIST ThermoML archive (doi:10.1016/j.tca.2015.08.013).
Numbers after ± are expanded uncertainties.

Details: for mass density / vapor or sublimation pressure / kinematic viscosity / speed of sound: Liquid; for mass density: Vibrating tube method; for vapor or sublimation pressure: Ebulliometric method (Recirculating still); for surface tension liquid-gas: Drop volume; for kinematic viscosity / speed of sound: 101.33 kPa; for kinematic viscosity: Capillary tube (Ostwald / Ubbelohde) method; for speed of sound: Sing-around technique in a fixed-path interferometer

c1ccoc1 [furan]
mass density [kg/m3]
Details	298.15 K	300.65 K	303.15 K	308.15 K	313.15 K	318.15 K	323.15 K	328.15 K	333.15 K	338.15 K
99 kPa	–	928.357 ± 0.23	924.861 ± 0.23	–	–	–	–	–	–	–
100 kPa	–	–	924.86 ± 0.29	–	–	–	–	–	–	–
2500 kPa	–	–	927.4 ± 0.3	920.6 ± 0.3	913.48 ± 0.3	906.59 ± 0.3	899.25 ± 0.3	892.18 ± 0.3	884.69 ± 0.3	877.34 ± 0.3
5000 kPa	–	–	930.33 ± 0.3	923.71 ± 0.3	916.68 ± 0.3	909.88 ± 0.3	902.71 ± 0.3	895.9 ± 0.31	888.51 ± 0.31	881.44 ± 0.31
7500 kPa	–	–	933.21 ± 0.3	926.73 ± 0.31	919.8 ± 0.31	913.18 ± 0.31	906.1 ± 0.31	899.49 ± 0.31	892.17 ± 0.31	885.37 ± 0.31
10000 kPa	–	–	936 ± 0.31	929.66 ± 0.31	922.81 ± 0.31	916.44 ± 0.31	909.42 ± 0.32	902.97 ± 0.32	895.74 ± 0.32	889.16 ± 0.32
20000 kPa	–	–	946.46 ± 0.32	940.5 ± 0.32	934.04 ± 0.33	928.06 ± 0.33	921.53 ± 0.33	915.52 ± 0.34	908.84 ± 0.34	902.71 ± 0.34
30000 kPa	–	–	956.04 ± 0.33	950.3 ± 0.33	944.27 ± 0.34	938.56 ± 0.34	932.47 ± 0.35	926.72 ± 0.35	920.52 ± 0.36	914.72 ± 0.36
40000 kPa	–	–	964.82 ± 0.33	959.34 ± 0.33	953.57 ± 0.34	948.09 ± 0.35	942.39 ± 0.35	936.8 ± 0.36	931.04 ± 0.37	925.5 ± 0.37
50000 kPa	–	–	972.99 ± 0.33	967.69 ± 0.33	962.21 ± 0.34	956.88 ± 0.35	951.44 ± 0.36	946.08 ± 0.36	940.62 ± 0.37	935.32 ± 0.38
60000 kPa	985.81 ± 0.31	–	980.62 ± 0.32	975.44 ± 0.33	970.23 ± 0.34	965.06 ± 0.35	959.86 ± 0.36	954.71 ± 0.37	949.48 ± 0.37	944.34 ± 0.38

Details	kinematic viscosity [m2/s]	speed of sound [m/s]	surface tension liquid-gas [mN/m]	vapor or sublimation pressure [kPa]
298.44 K	–	–	–	80.9 ± 0.23
299.63 K	–	–	–	84.59 ± 0.23
300.65 K	3.7e-07 ± 8e-09	1120.9 ± 1.5	22.55 ± 0.21	–
300.76 K	–	–	–	88.22 ± 0.23
301.52 K	–	–	–	90.81 ± 0.23
302.4 K	–	–	–	93.89 ± 0.23
303.15 K	3.61e-07 ± 7.8e-09	1108.8 ± 1.5	22.08 ± 0.21	–
303.86 K	–	–	–	99.07 ± 0.23
304.46 K	–	–	–	101.33 ± 0.24
